Measurements taken from US9073821B2, “Hydroxamic acid derivative” (priority 2010, dated 2015).
Where two headings read alike, the source gives them in different places.

Target: Pseudomonas aeruginosa LpxC enzyme (Pseudomonas aeruginosa (strain ATCC 15692 / DSM 22644 / CIP 104116 / JCM 14847 / LMG 12228 / 1C / PRS 101 / PAO1), UniProt P47205)
Assay: biochemical
Type: biochemical
Protocol: Test 1: Evaluation of the Inhibitory Activity on Pseudomonas aeruginosa LpxC Enzyme
An inhibition curve was constructed for each test compound by performing the aforementioned reaction at varying concentrations of the test compound. From this inhibition curve, the concentration of the test compound at which the formation of the reaction product was suppressed by 50% was determined as the IC50 of the test compound, which was an index for the inhibitory activity on Pseudomonas aeruginosa LpxC enzyme.

[1] = inhibitory activity on Pseudomonas aeruginosa LpxC enzyme, class symbols A/B/C, read-out: Enzyme inhibitory activity
[2] = class symbols A/B/C by IC50, Table 3, read-out: Enzyme inhibitory activity (inhibitory activity on Pseudomonas aeruginosa LpxC enzyme)

SMILES	IC50 [1] [nM]	IC50 [2] [nM]
CNC(=O)C(C(=O)NO)N(C)C(=O)c1ccc(-c2ccc(CC(=O)N(C)C)cc2)cc1 (stereo not drawn) [Compound 265, 2-[({4′-[2-(dimethylamino)-2-oxoethyl]biphenyl-4-yl}carbonyl)(methyl)amino]-N-hydroxy-N′-methylpropanediamide]	10 to 100	
O=C(NC(C(=O)NO)C(=O)NCC1CCCO1)c1ccc(-c2ccc(OCCO)cc2)cc1 (stereo not drawn) [Compound 134, N-hydroxy-2-({[4′-(2-hydroxyethoxy)biphenyl-4-yl]carbonyl}amino)-N′-(tetrahydrofuran-2-ylmethyl)propanediamide]	< 10	
CNC(=O)C(C(=O)NO)N(C)C(=O)c1ccc(C#Cc2ccc(CNC(C)(C)C)cc2)cc1 (stereo not drawn) [Compound 328]	10 to 100	
CCOC1CN(Cc2ccc(C#Cc3ccc(C(=O)N(C)C(C(=O)NC)C(=O)NO)cc3)c(C)c2)C1 (stereo not drawn) [Compound 568, 2-[{[4-({4-[(3-ethoxyazetidin-1-yl)methyl]-2-methylphenyl}ethynyl)phenyl]carbonyl}(methyl)amino]-N-hydroxy-N′-methylpropanediamide]		< 10
CNC(=O)C(C(=O)NO)N(C(=O)c1ccc(-c2ccc(OCCCN3CCOCC3)cc2)cc1)C1CC1 (stereo not drawn) [Compound 198, 2-[cyclopropyl({4′-[3-(morpholin-4-yl)propoxy]biphenyl-4-yl}carbonyl)amino]-N-hydroxy-N′-methylpropanediamide]	< 10	
CNC(=O)C(NC(=O)c1ccc(C#Cc2ccc(CN3CCCOCC3)cc2)cc1)C(=O)NO (stereo not drawn) [Compound 117, N-hydroxy-N′-methyl-2-[(4-{[4-(1,4-oxazepan-4-ylmethyl)phenyl]ethynyl}benzoyl)amino]propanediamide]	< 10	
CNC(=O)C(C(=O)NO)N(C)C(=O)c1ccc(-c2ccc(OCCOC)cc2)cc1 (stereo not drawn) [Compound 191, N-hydroxy-2-[{[4′-(2-methoxyethoxy)biphenyl-4-yl]carbonyl}(methyl)amino]-N′-methylpropanediamide]	< 10	
CNC(=O)C(C(=O)NO)N(C)C(=O)c1ccc(C#Cc2ccoc2)cc1 (stereo not drawn) [Compound 461, 2-[{[4-(furan-3-ylethynyl)phenyl]carbonyl}(methyl)amino]-N-hydroxy-N′-methylpropanediamide]	10 to 100	
CNC(=O)C(C)(C(=O)NO)N(C)C(=O)c1ccc(C#Cc2ccccc2)cc1 (stereo not drawn) [Compound 345, N-hydroxy-N′,2-dimethyl-2-(methyl {[4-(phenylethynyl)phenyl]carbonyl}amino)propanediamide]	< 10	
NC(=O)C(NC(=O)c1ccc(-c2ccccc2)cc1)C(=O)NO (stereo not drawn) [Compound 111, 2-[(biphenyl-4-ylcarbonyl)amino]-N-hydroxypropanediamide]	10 to 100	
O=C(NC(C(=O)NO)C(=O)NCCc1ccccn1)c1ccc(-c2ccc(OCCO)cc2)cc1 (stereo not drawn) [Compound 151, N-hydroxy-2-({[4′-(2-hydroxyethoxy)biphenyl-4-yl]carbonyl}amino)-N′-[2-(pyridin-2-yl)ethyl]propanediamide]	< 10	
CNC(=O)C(C(=O)NO)N(C)C(=O)c1ccc(-c2ccc3occc3c2)cc1 (stereo not drawn) [Compound 184, 2-{[4-(1-benzofuran-5-yl)benzoyl](methyl)amino}-N-hydroxy-N′-methylpropanediamide]	< 10	
CNC(=O)C(C(=O)NO)N(C)C(=O)c1ccc(-c2c(F)cccc2F)cc1 (stereo not drawn) [Compound 233, 2-{[(2′,6′-difluorobiphenyl-4-yl)carbonyl](methyl)amino}-N-hydroxy-N′-methylpropanediamide]	10 to 100	
CNC(=O)C(C(=O)NO)N(C)C(=O)c1ccc(-c2ccc3c(c2)CCN3)cc1 (stereo not drawn) [Compound 39, 2-{[4-(2,3-dihydro-1H-indol-5-yl)benzoyl](methyl)amino}-N-hydroxy-N′-methylpropanediamide]	10 to 100	
CNC(=O)C(C(=O)NO)N(C)C(=O)c1ccc(N2Cc3ccccc3C2)cc1 (stereo not drawn) [Compound 250, 2-{[4-(1,3-dihydro-2H-isoindol-2-yl)benzoyl](methyl)amino}-N-hydroxy-N′-methylpropanediamide]	10 to 100	

Further lines, results first:

IC50 [1] [nM]	IC50 [2] [nM]	SMILES
10 to 100		CCCCCNc1ccc(-c2ccc(C(=O)N(C)C(C(=O)NC)C(=O)NO)cc2)cn1 (stereo not drawn) [Compound 475, N-hydroxy-N′-methyl-2-[methyl({4-[6-(pentylamino)pyridin-3-yl]phenyl}carbonyl)amino]propanediamide]
< 10		CNC(=O)C(C(=O)NO)N(C)C(=O)c1ccc(-c2ccc(N(C)CC3CC3)cc2)cc1 (stereo not drawn) [Compound 85, 2-[({4′-[(cyclopropylmethyl)(methyl)amino]biphenyl-4-yl}carbonyl)(methyl)amino]-N-hydroxy-N′-methylpropanediamide]
> 100		CNC(=O)[C@](C)(C(=O)NO)N(C)C(=O)c1ccc(-c2ccccc2)cc1 [Compound 343, (2R)-2-[(biphenyl-4-ylcarbonyl)(methyl)amino]-N-hydroxy-N′,2-dimethylpropanediamide]
> 100		CNC(=O)C(C(=O)NO)N(C)C(=O)c1ccc(-c2ccccc2)nc1 (stereo not drawn) [Compound 190, N-hydroxy-N′-methyl-2-{methyl[(6-phenylpyridin-3-yl)carbonyl]amino}propanediamide]
10 to 100		CNC(=O)C(C(=O)NO)N(C)C(=O)c1ccc(-c2ccc(CCC(=O)N(C)C)cc2)cc1 (stereo not drawn) [Compound 266, 2-[({4′-[3-(dimethylamino)-3-oxopropyl]biphenyl-4-yl}carbonyl)(methyl)amino]-N-hydroxy-N′-methylpropanediamide]
10 to 100		CNC(=O)C(C(=O)NO)N(C)C(=O)c1ccc(-c2ccc(NCCCN3CCOCC3)cc2)cc1 (stereo not drawn) [Compound 86, N-hydroxy-N′-methyl-2-{methyl[(4′-{[3-(morpholin-4-yl)propyl]amino}biphenyl-4-yl)carbonyl]amino}propanediamide]
> 100		CNC(=O)C(C(=O)NO)N(C)C(=O)c1ccc(-c2cncc(OC)c2)cc1 (stereo not drawn) [Compound 447, N-hydroxy-2-[{[4-(5-methoxypyridin-3-yl)phenyl]carbonyl}(methyl)amino]-N′-methylpropanediamide]
10 to 100		CNC(=O)C(C(=O)NO)N(C)C(=O)c1ccc(C2CCCCC2)cc1 (stereo not drawn) [Compound 30, 2-[(4-cyclohexylbenzoyl)(methyl)amino]-N-hydroxy-N′-methylpropanediamide]
	< 10	CCO/N=C/c1cc(C#Cc2ccc(C(=O)N(C)C(C(=O)NC)C(=O)NO)cc2)co1 (stereo not drawn) [Compound 506, 2-[{[4-({5-[(E)-(ethoxyimino)methyl]furan-3-yl}ethynyl)phenyl]carbonyl}(methyl)amino]-N-hydroxy-N′-methylpropanediamide]
10 to 100		CNC(=O)C(C(=O)NO)N(C)C(=O)c1ccc(-c2ccc3nn(C)cc3c2)cc1 (stereo not drawn) [Compound 197, N-hydroxy-N′-methyl-2-{methyl[4-(2-methyl-2H-indazol-5-yl)benzoyl]amino}propanediamide]
10 to 100		CN(C(=O)c1ccc(-c2ccccc2)cc1)C(C(=O)NO)C(=O)NCc1ccccn1 (stereo not drawn) [Compound 161, 2-[(biphenyl-4-ylcarbonyl)(methyl)amino]-N-hydroxy-N′-(pyridin-2-ylmethyl)propanediamide]
10 to 100		CNC(=O)C(C(=O)NO)N(C)C(=O)c1ccc(OC2C=CCCC2)cc1 (stereo not drawn) [Compound 444, 2-[{[4-(cyclohex-2-en-1-yloxy)phenyl]carbonyl}(methyl)amino]-N-hydroxy-N′-methylpropanediamide]
